How the values were obtained:
MDA-MB-231 cells = assay: Cell proliferation assay (CellTiter-Glo), MDA-MB-231; type: cell-based; conditions: Homo sapiens, MDA-MB-231, 72 h, 72 h treatment, Celltiter-Glo luminescence
Method in brief: (§1)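 Compounds tested over ten concentrations ([…]) for 72 h on EVSA-T cells in MEM/10% FBS and MDA-MB-231 cells in RPMI-1640/10% FBS, seeded at 10000/well. Luminescent CellTiter-Glo readout; IC50 fitted after normalisation to controls.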

EVSA-T cells = assay: Cell proliferation assay (CellTiter-Glo), EVSA-T; type: cell-based; conditions: Homo sapiens, EVSA-T, 72 h, 72 h treatment, Celltiter-Glo luminescence
Method in brief: as §1

| IC50 (MDA-MB-231 cells) [nM] | SMILES | IC50 (EVSA-T cells) [nM] |
| --- | --- | --- |
| 210 | C[C@@H]1CN(CC(=O)N2CC(C)(C)c3c2cc([C@@H](O)c2ccc(F)cc2)c2ncnn32)[C@@H](CN2CCOC[C@H]2C)CN1 [Compound 133, 1-(4-((S)-(4-fluorophenyl)(hydroxy)methyl)-8,8-dimethyl-7,8-dihydro-6H-pyrrolo[2,3-e][1,2,4]triazolo[1,5-a]pyridin-6-yl)-2-((2R,5R)-5-methyl-2-(((R)-3-methylmorpholino)methyl)piperazin-1-yl)ethan-1-one] | 56 |
| 190 | C[C@@H]1CN(CC(=O)N2CC(C)(C)c3c2cc([C@H](O)c2ccc(F)cc2)c2ncnn32)[C@@H](CN2CCOC[C@H]2C)CN1 [Compound 134, 1-(4-((R)-(4-fluorophenyl)(hydroxy)methyl)-8,8-dimethyl-7,8-dihydro-6H-pyrrolo[2,3-e][1,2,4]triazolo[1,5-a]pyridin-6-yl)-2-((2R,5R)-5-methyl-2-(((R)-3-methylmorpholino)methyl)piperazin-1-yl)ethan-1-one] | 83 |
| 40 | C[C@@H]1CN(CC(=O)N2CC(C)(C)c3c2cc(Cc2ccc(F)cc2)c2nn(C)c(=O)n32)[C@@H](CN2CCOC[C@H]2C)CN1 [Compound 135, 4-(4-fluorobenzyl)-2,8,8-trimethyl-6-(2-((2R,5R)-5-methyl-2-(((R)-3-methylmorpholino)methyl)piperazin-1-yl)acetyl)-2,6,7,8-tetrahydro-1H-pyrrolo[2,3-e][1,2,4]triazolo[4,3-a]pyridin-1-one] | 4 |
| 190 | C[C@@H]1CN(CC(=O)N2CC(C)(C)c3c2cc(Cc2ccc(F)cc2)c2nc(C(C)(C)O)nn32)[C@@H](CN2CCOC[C@H]2C)CN1 [Compound 137, 1-(4-(4-fluorobenzyl)-2-(2-hydroxypropan-2-yl)-8,8-dimethyl-7,8-dihydro-6H-pyrrolo[2,3-e][1,2,4]triazolo[1,5-a]pyridin-6-yl)-2-((2R,5R)-5-methyl-2-(((R)-3-methylmorpholino)methyl)piperazin-1-yl)ethan-1-one] | 12 |
| 160 | C[C@@H]1CN(CC(=O)N2CC(C)(C)c3c2cc(C(F)c2ccc(F)cc2)c2ncnn32)[C@@H](CN2CCOC[C@H]2C)CN1 (stereo partly drawn) [Compound 138, 1-(4-(fluoro(4-fluorophenyl)methyl)-8,8-dimethyl-7,8-dihydro-6H-pyrrolo[2,3-e][1,2,4]triazolo[1,5-a]pyridin-6-yl)-2-((2R,5R)-5-methyl-2-(((R)-3-methylmorpholino)methyl)piperazin-1-yl)ethan-1-one] | 33 |
| 45 | C[C@@H]1CN(CC(=O)N2CC(C)(C)c3c2cc(Cc2ccc(F)cc2)c2nc(C4CCOCC4)nn32)[C@@H](CN2CCOC[C@H]2C)CN1 [Compound 140, 1-(4-(4-fluorobenzyl)-8,8-dimethyl-2-(tetrahydro-2H-pyran-4-yl)-7,8-dihydro-6H-pyrrolo[2,3-e][1,2,4]triazolo[1,5-a]pyridin-6-yl)-2-((2R,5R)-5-methyl-2-(((R)-3-methylmorpholino)methyl)piperazin-1-yl)ethan-1-one] | 3 |
| 50 | C[C@@H]1CN(CC(=O)N2CC(C)(C)c3c2cc(Cc2ccc(F)cc2)c2nc(C(F)F)nn32)[C@@H](CN2CCOC[C@H]2C)CN1 [Compound 142, 1-(2-(difluoromethyl)-4-(4-fluorobenzyl)-8,8-dimethyl-7,8-dihydro-6H-pyrrolo[2,3-e][1,2,4]triazolo[1,5-a]pyridin-6-yl)-2-((2R,5R)-5-methyl-2-(((R)-3-methylmorpholino)methyl)piperazin-1-yl)ethan-1-one] | 2 |
| 43 | C[C@@H]1CN(CC(=O)N2CC(C)(C)c3c2cc(Cc2ccc(F)cc2)c2nc(N4CCOCC4)nn32)[C@@H](CN2CCOC[C@H]2C)CN1 [Compound 143, 1-(4-(4-fluorobenzyl)-8,8-dimethyl-2-morpholino-7,8-dihydro-6H-pyrrolo[2,3-e][1,2,4]triazolo[1,5-a]pyridin-6-yl)-2-((2R,5R)-5-methyl-2-(((R)-3-methylmorpholino)methyl)piperazin-1-yl)ethan-1-one] | 3 |
| 51 | C[C@@H]1CN(CC(=O)N2CC(C)(C)c3c2cc(Cc2ccc(F)cc2)c2nc(CF)nn32)[C@@H](CN2CCOC[C@H]2C)CN1 [Compound 144, 1-(4-(4-fluorobenzyl)-2-(fluoromethyl)-8,8-dimethyl-7,8-dihydro-6H-pyrrolo[2,3-e][1,2,4]triazolo[1,5-a]pyridin-6-yl)-2-((2R,5R)-5-methyl-2-(((R)-3-methylmorpholino)methyl)piperazin-1-yl)ethan-1-one] | 3 |
| 120 | C[C@@H]1CN(CC(=O)N2CC(C)(C)c3c2cc(Cc2ccc(F)cc2)c2nc(C(F)(F)F)cn32)[C@@H](CN2CCOCC23CC3)CN1 [Compound 147, 2-((2R,5R)-2-((7-oxa-4-azaspiro[2.5]octan-4-yl)methyl)-5-methylpiperazin-1-yl)-1-(4-(4-fluorobenzyl)-8,8-dimethyl-2-(trifluoromethyl)-7,8-dihydro-6H-imidazo[1,2-a]pyrrolo[2,3-e]pyridin-6-yl)ethan-1-one] | 10 |
| 100 | C[C@@H]1CN(CC(=O)N2CC(C)(C)c3c2cc(Cc2ccc(F)cc2)c2ccnn32)[C@@H](CN2CCOC[C@H]2C)CN1 [Compound 148, 1-(4-(4-fluorobenzyl)-8,8-dimethyl-7,8-dihydro-6H-pyrazolo[1,5-a]pyrrolo[2,3-e]pyridin-6-yl)-2-((2R,5R)-5-methyl-2-(((R)-3-methylmorpholino)Methyl)piperazin-1-yl)ethan-1-one] | 6 |
| 100 | C[C@@H]1CN(CC(=O)N2CC(C)(C)c3c2cc(Cc2ccc(F)cc2)c2c(C(N)=O)cnn32)[C@@H](CN2CCOC[C@H]2C)CN1 [Compound 149, 4-(4-fluorobenzyl)-8,8-dimethyl-6-(2-((2R,5R)-5-methyl-2-(((R)-3-methylmorpholino)methyl)piperazin-1-yl)acetyl)-7,8-dihydro-6H-pyrazolo[1,5-a]pyrrolo[2,3-e]pyridine-3-carboxamide] | 7 |
| 170 | C[C@@H]1CN(CC(=O)N2CC(C)(C)c3c2cc(Cc2ccc(F)cc2)c2n[nH]c(=O)n32)[C@@H](CN2CCOC[C@H]2C)CN1 [Compound 152, 4-(4-fluorobenzyl)-8,8-dimethyl-6-(2-((2R,5R)-5-methyl-2-(((R)-3-methylmorpholino)methyl)piperazin-1-yl)acetyl)-2,6,7,8-tetrahydro-1H-pyrrolo[2,3-e][1,2,4]triazolo[4,3-a]pyridin-1-one] | 30 |
| 38 | C[C@@H]1CN(CC(=O)N2CC(C)(C)c3c2cc(Cc2ccc(F)cc2)c2nnc(C#N)n32)[C@@H](CN2CCOC[C@H]2C)CN1 [Compound 153, 4-(4-fluorobenzyl)-8,8-dimethyl-6-(2-((2R,5R)-5-methyl-2-(((R)-3-methylmorpholino)methyl)piperazin-1-yl)acetyl)-7,8-dihydro-6H-pyrrolo[2,3-e][1,2,4]triazolo[4,3-a]pyridine-1-carbonitrile] | 5 |
| 100 | CC(O)c1nc2c(Cc3ccc(F)cc3)cc3c(n2n1)C(C)(C)CN3C(=O)CN1C[C@@H](C)NC[C@@H]1CN1CCOC[C@H]1C (stereo partly drawn) [Compound 154, 1-(4-(4-fluorobenzyl)-2-(1-hydroxyethyl)-8,8-dimethyl-7,8-dihydro-6H-pyrrolo[2,3-e][1,2,4]triazolo[1,5-a]pyridin-6-yl)-2-((2R,5R)-5-methy 1-2-(((R)-3-methylmorpholino)methyl)piperazin-1-yl)ethan-1-one] | 5 |
| 20 | C[C@@H]1CN(CC(=O)N2CC(C)(C)c3c2cc(Cc2ccc(F)cc2)c2nc(N4CC(O)C4)nn32)[C@@H](CN2CCOC[C@H]2C)CN1 [Compound 159, 1-(4-(4-fluorobenzyl)-2-(3-hydroxyazetidin-1-yl)-8,8-dimethyl-7,8-dihydro-6H-pyrrolo[2,3-e][1,2,4]triazolo[1,5-a]pyridin-6-yl)-2-((2R,5R)-5-methyl-2-(((R)-3-methylmorpholino)methyl)piperazin-1-yl)ethan-1-one] | 4 |
| 120 | C[C@@H]1CN(CC(=O)N2CC(C)(C)c3c2cc(Cc2ccc(F)cc2)c2nc(C(F)(F)F)cn32)[C@@H](CN2[C@H](C)COC[C@H]2C)CN1 [Compound 161, 2-((2R,5R)-2-(((3R,5R)-3,5-dimethylmorpholino)methyl)-5-methylpiperazin-1-yl)-1-(4-(4-fluorobenzyl)-8,8-dimethyl-2-(trifluoromethyl)-7,8-dihydro-6H-imidazo[1,2-a]pyrrolo[2,3-e]pyridin-6-yl)ethan-1-one] | 30 |
| 46 | C[C@@H]1CN(CC(=O)N2CC(C)(C)c3c2cc(Cc2ccc(F)cc2)c2nc(C(F)(F)F)cn32)[C@@H](CN2[C@@H](C)COC[C@@H]2C)CN1 [Compound 162, 2-((2R,5R)-2-(((3S,5S)-3,5-dimethylmorpholino)methyl)-5-methylpiperazin-1-yl)-1-(4-(4-fluorobenzyl)-8,8-dimethyl-2-(trifluoromethyl)-7,8-dihydro-6H-imidazo[1,2-a]pyrrolo[2,3-e]pyridin-6-yl)ethan-1-one] | 10 |
| 28 | C[C@@H]1CN(CC(=O)N2CC(C)(C)c3c2cc(Cc2ccc(F)cc2)c2nc(C4CCOC4)nn32)[C@@H](CN2CCOC[C@H]2C)CN1 (stereo partly drawn) [Compound 163, 1-(4-(4-fluorobenzyl)-8,8-dimethyl-2-(tetrahydrofuran-3-yl)-7,8-dihydro-6H-pyrrolo[2,3-e][1,2,4]triazolo[1,5-a]pyridin-6-yl)-2-((2R,5R)-5-methyl-2-(((R)-3-methylmorpholino)methyl)piperazin-1-yl)ethan-1-one] | 2 |
